Columns and labels:
[1] = target: T1, Rhodamine-labeled PNA (galactose-specific lectin) (Arachis hypogaea, UniProt P02872); assay: Control: glycan arrays exposed to Rhodamine-labeled PNA, fluorescence; type: binding; conditions: PNA 1.5×10^−5 M, 5 h, washed with phosphate buffer/Tween 20
T1 sequence (P02872 24-273): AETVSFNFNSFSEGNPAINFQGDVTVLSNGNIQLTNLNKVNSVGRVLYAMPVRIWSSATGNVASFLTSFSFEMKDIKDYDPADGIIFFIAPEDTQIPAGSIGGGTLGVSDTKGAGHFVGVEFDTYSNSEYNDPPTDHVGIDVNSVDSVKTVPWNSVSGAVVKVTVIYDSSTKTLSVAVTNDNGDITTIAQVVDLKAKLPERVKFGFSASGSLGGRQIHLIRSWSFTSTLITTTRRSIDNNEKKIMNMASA
Excerpt: Control Experiments. […] This experiment supports the conclusion that fluorescence in the Cy3-labelled ConA exposed arrays of compound 3 and compound 4 arise from ConA-glucose binding (FIG. 27).

[2] = target: Concanavalin A (ConA) (Canavalia ensiformis, UniProt P02866)
Excerpt: Fluorescence intensity profiles of the array were obtained from a Nikon Eclipse Ti fluorescence microscope (λex=532-587 nm, λobs=608-683 nm), and extracted by NIS-elements software (Nikon Instruments, Inc.). Exposure times ranged from 1-4 s, depending on the brightness of the arrays. To compare data taken with different exposure times, the normalized fluorescence was obtained by dividing the maximum fluorescence by the background fluorescence. It is possible that the ratio of signal-to-background can vary with exposure time, so to test the effect of exposure time on the normalized fluorescence of features on the microarray, fluorescence images of a surface patterned with compound 4 and bound to Cy3-modified ConA were taken at different exposure time.
Preparation of Carbohydrate arrays by PPL-induced Thiol-ene and Thiol-acrylate reaction. To prepare the pen arrays for inking, they were exposed to O2 plasma (Harrick PDC-001, 30 s, medium power) to render the surfaces of the pen-arrays hydrophilic. […]
Arrays of compound 3 and compound 4 were prepared by the thiol-methacrylate and thiol-ene reactions, respectively, as well as α-mannosides immobilized by the thiol-ene and Cuaac reaction. Binding of Concanavalin A (ConA) to these arrays was measured by fluorescence microscopy to determine how the mutivalency of the resulting glycans affects binding. […]

α-glucomethacrylate [compound 3]
fluorescence after exposure to Rhodamine-labeled PNA [1]: no fluorescence was observed
fluorescence after exposure to Rhodamine-labeled PNA ([1]; listed as Compound 3): no visible fluorescence was observed
lowest ConA concentration detected by the array ([2]; ConA concentration varied systematically, thiol-acrylate brush polymer arrays): 0.2 µM
normalized fluorescence of array after ConA binding ([2]; Cy3-labelled ConA 0.5 mg/mL, 4 h at 4° C., maximum fluorescence divided by background fluorescence): 7.1±0.2
